Measured values published in patent US10450297B2, “Sulfonyl amide derivatives for the treatment of abnormal cell growth” (Pfizer, Inc., priority 2007, dated 2019).

molecular target: FAK kinase (catalytic construct FAK(410-689)) (Homo sapiens (Human), UniProt Q05397); experiment: FAKcd kinase ELISA (inhibition of poly-glu-tyr phosphorylation by FAK(410-689)); assay type: biochemical; details: 50 μM final ATP
Procedure: A. In-Vitro Activity of FAK:
The assay protocol has three parts:
3. […] 4. […] 5. […] 6. […] 7. […] 9. […] 10. […] 12. […] 13. […] 14. Aliquot the FAKcd protein and store frozen at −80° C. II. FAK Activation 1. […] At t120 (t=120 minutes), add 10 μl of 150 mM ATP. […] Add 180 μl aliquots of the desalted material to NiNTA spin column and incubate on spin column 4. […] FAKcd Kinase ELISA 1. Coat 96-well Nunc MaxiSorp plates with poly-glu-tyr (pGT) at […]: Prepare 10 μg/ml of pGT in PBS and aliquot 100 μl/well. Incubate the plates at 37° C. overnight, aspirate the supernatant, wash the plates 3 times with Wash Buffer, and flick to dry before storing at 4° C. 2. Prepare compound stock solutions of 2.5 mM in 100% DMSO. The stocks are subsequently diluted to 60× of the final concentration in 100% DMSO, and diluted 1:5 in Kinase Phosphorylation Buffer. 3. […] Add 80 μl to each well for a final ATP concentration of 50 μM. 4. […] 5. Dilute on ice, FAKcd protein to 1:1000 in Kinase Phosphorylation Buffer. Dispense 30 μl per well. 6. Note: Linearity and the appropriate dilution must be pre-determined for each batch of protein. The enzyme concentration selected should be such that quantitation of the assay signal will be approximately 0.8-1.0 at OD450, and in the linear range of the reaction rate. 7. Prepare both a No ATP control (noise) and a No Compound Control (Signal): 8. (Noise) One blank row of wells receives 10 μl of 1:5 diluted compounds in DMSO, 80 μl of Phosphorylation buffer (minus ATP), and 30 μl FAKcd solution. 9. […] 10. Incubate reaction at room temperature for 15 minutes with gentle shaking on a plate shaker. 11. Terminate the reaction by aspirating off the reaction mixture and washing 3 times with wash buffer. 12. Dilute phospho-tyrosine HRP-conjugated (pY20HRP) antibody to 0.250 μg/ml (1:1000 of Stock) in blocking buffer. Dispense 100 μl per well, and incubate with shaking for 30 minutes at 25°. 13. Aspirate the supernatant and wash the plate 3 times with wash buffer. 14. Add 100 μl per well of room temperature TMB solution to initiate color development. Color development is terminated after approximately 15-30 sec. by the addition of 100 μl of 0.09M H2SO4 per well. 15. The signal is quantitated by measurement of absorbance at 450 nm on the BioRad ricroplate reader or a microplate reader capable of reading at OD450. 16. Inhibition of tyrosine kinase activity would result in a reduced absorbance signal. […] The values are reported as IC50s, μM concentration. FAK Inducible cell-based ELISA: Final Protocol Materials: […]

Sequence of FAK kinase (catalytic construct FAK(410-689)) (Q05397 410-689): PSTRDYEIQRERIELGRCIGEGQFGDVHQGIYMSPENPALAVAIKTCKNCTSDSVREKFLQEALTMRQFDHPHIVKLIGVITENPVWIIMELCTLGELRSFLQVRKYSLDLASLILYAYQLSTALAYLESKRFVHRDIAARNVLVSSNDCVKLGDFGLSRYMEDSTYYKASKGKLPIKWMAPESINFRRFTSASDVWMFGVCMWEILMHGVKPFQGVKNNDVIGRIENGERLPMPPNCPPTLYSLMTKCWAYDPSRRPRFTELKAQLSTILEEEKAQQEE

IC50 | SMILES
4.74 nM | CN(c1ncccc1CNc1nc(Nc2cccc(C(=O)N3CCCC3CO)c2)ncc1C(F)(F)F)S(C)(=O)=O (stereo not drawn) [Compound 147, N-{3-[({2-[(3-{[2-(hydroxymethyl)pyrrolidin-1-yl]carbonyl}phenyl)amino]-5-(trifluoromethyl)pyrimidin-4-yl}amino)methyl]pyridin-2-yl}-N-methylmethane-sulfonamide]
7.41 nM | CS(=O)(=O)c1cccc(CNc2nc(Nc3ccc(C#N)c(O)c3)ncc2C(F)(F)F)c1 [Compound 393, 2-hydroxy-4-{[4-{[3-(methylsulfonyl)benzyl]amino}-5-(trifluoromethyl)pyrimidin-2-yl]amino}benzonitrile]
2.36 nM | COCCCN(C)C(=O)c1ccc(Nc2ncc(C(F)(F)F)c(NCc3cccnc3N(C)S(C)(=O)=O)n2)cc1 [Compound 277, N-(3-methoxypropyl)-N-methyl-4-({4-[({2-[methyl(methylsulfonyl)amino]pyridin-3-yl}methyl)arnino]-5-(trifluoromethyl)pyrimidin-2-yl}amino)benzamide]
0.727 nM | CN(c1ncccc1CNc1nc(Nc2cccc(CNS(=O)(=O)C(F)(F)F)c2)ncc1C(F)(F)F)S(C)(=O)=O [Compound 303, 1,1,1-trifluoro-N-[3-({4-[({2-[methyl(methylsulfonyl)amino]pyridin-3-yl}methyl)amino]-5-(trifluoromethyl)pyrimidin-2-yl}amino)benzyl]methanesulfonamide]
63.7 nM | CN(c1ncccc1CNc1nc(Oc2ccc(C(N)=O)cc2)ncc1C(F)(F)F)S(C)(=O)=O [Compound 350, 4-({4-[({2-[methyl(methylsulfonyl)amino]pyridin-3-yl}methyl)amino]-5-(trifluoromethyl)pyrimidin-2-yl}oxy)benzamide]
188 nM | CCOC(=O)[C@H]1CC[C@@H](Nc2ncc(C(F)(F)F)c(NCc3cccnc3N(C)S(C)(=O)=O)n2)CC1 [Compound 60, ethyl cis-4-({4-(({2-[methyl(methylsulfonyl)amino]pyridin-3-yl}methyl)amino]-5-(trifluoromethyl)pyrimidin-2-yl}amino)cyclohexanecarboxylate]
2.15 nM | CC(C)OCc1ccc(Nc2ncc(C(F)(F)F)c(NCc3cccnc3N(C)S(C)(=O)=O)n2)cc1 [Compound 347, N-[3-({{2-{[4-(isopropoxymethyl)phenyl]amino}-5-(trifluoromethyl)pyrimidin-4-yl]amino}methyl)pyridin-2-yl]-N-methylmethane-sulfonamide]
188 nM | CN(c1ncccc1CNc1nc(NC2CCN(C(N)=O)CC2)ncc1C(F)(F)F)S(C)(=O)=O [Compound 57, 4-({4-[({2-[methyl(methylsulfonyl)amino]pyridin-3-yl}methyl)amino]-5-(trifluoromethyl)pyrimidin-2-yl}amino)piperidine-1-carboxamide]
< 0.595 nM | CN(c1ncccc1CNc1nc(Nc2ccc(CO)cc2)ncc1C(F)(F)F)S(C)(=O)=O [Example 6, N-(3-((2-(4-(hydroxymethyl)phenylamino)-5-(trifluoromethyl)pyrimidin-4-ylamino)methyl)pyridin-2-yl)-N-methylmethanesulfonamide]
1.44 nM | CC(=O)Nc1cccc(Nc2ncc(C(F)(F)F)c(NCc3nccnc3N(C)S(C)(=O)=O)n2)c1 [Compound 385, N-[3-({4-[({3-[methyl(methylsulfonyl)amino]pyrazin-2-yl}methyl)amino]-5-(trifluoromethyl)pyrimidin-2-yl}amino)phenyl]acetamide]
0.6 nM | CN(c1nccnc1CNc1nc(Nc2ccccc2)ncc1C(F)(F)F)S(C)(=O)=O [Compound 75, N-[3-({[2-anilino-5-(trifluoromethyl)pyrimidin-4-yl]amino}methyl)pyrazin-2-yl]-N-methylmethane-sulfonamide]
0.69 nM | CN(c1ncccc1CNc1nc(Nc2ccc(C(=O)NC3CCC3)cc2)ncc1C(F)(F)F)S(C)(=O)=O [Compound 240, N-cyclobutyl-4-({4-[({2-[methyl(methylsulfonyl)amino]pyridin-3-yl}methyl)amino]-5-(trifluoromethyl)pyrimidin-2-yl}amino)benzamide]
5.1 nM | CN(c1ncccc1CNc1nc(Nc2cccc(C(=O)NC3CCCC3)c2)ncc1C(F)(F)F)S(C)(=O)=O [Compound 163, N-cyclopentyl-3-({4-[({2-[methyl(methylsulfonyl)amino]pyridin-3-yl}methyl)amino]-5-(trifluoromethyl)pyrimidin-2-yl}amino)benzamide]
0.6 nM | CN(c1ncccc1CNc1nc(Nc2ccc(C(=O)NCC3(O)CCC3)cc2)ncc1C(F)(F)F)S(C)(=O)=O [Compound 246, N-[(1-hydroxycyclobutyl)methyl]-4-({4-[({2-[methyl(methylsulfonyl)amino]pyridin-3-yl}methyl)amino]-5-(trifluoromethyl)pyrimidin-2-yl}amino)benzamide]
0.6 nM | Cc1cnc(N(C)S(C)(=O)=O)c(CNc2nc(Nc3ccc(C(N)=O)cc3)ncc2C(F)(F)F)c1 [Compound 82, 4-({4-(({5-methyl-2-[methyl(methylsulfonyl)amino]pyridin-3-yl}methyl)amino]-5-(trifluoromethyl)pyrimidin-2-yl}amino)benzamide]
0.84 nM | CN(c1ncccc1CNc1nc(Nc2cccc(C(=O)NCC3(C)COC3)c2)ncc1C(F)(F)F)S(C)(=O)=O [Compound 141, 3-({4-[({2-[methyl(methylsulfonyl)amino]pyridin-3-yl}methyl)amino]-5-(trifluoromethyl)pyrimidin-2-yl}amino)-N-[(3-methyloxetan-3-yl)methyl]benzamide]
1.57 nM | CN(C)C(=O)CNC(=O)c1ccc(Nc2ncc(C(F)(F)F)c(NCc3cccnc3N(C)S(C)(=O)=O)n2)cc1 [Compound 259, N-[2-(dimethylamino)-2-oxoethyl]-4-({4-[({2-[methyl(methylsulfonyl)amino]pyridin-3-yl}methyl)amino]-5-(trifluoromethyl)pyrimidin-2-yl}amino)benzamide]
0.6 nM | Cc1cnc(N(C)S(C)(=O)=O)c(CNc2nc(Nc3ccccc3)ncc2C(F)(F)F)c1 [Compound 70, N-[3-({[2-anilino-5-(trifluoromethyl)pyrimidin-4-yl]amino}methyl)-5-methylpyridin-2-yl]-N-methylmethanesulfonamide]
2.15 nM | CN(c1ncccc1CNc1nc(Nc2cccc(C(=O)N3CCOCC3)c2)ncc1C(F)(F)F)S(C)(=O)=O [Compound 123, N-methyl-N-[3-({(2-{[3-(morpholin-4-ylcarbonyl)phenyl]amino}-5-(trifluoromethyl)pyrimidin-4-yl]amino}methyl)pyridin-2-yl]methanesulfonamide]
4.51 nM | CN(c1cccc(CNc2nc(Nc3ccc(C#N)c(O)c3)ncc2C(F)(F)F)c1)S(C)(=O)=O [Compound 392, N-{3-[({2-[(4-cyano-3-hydroxyphenyl)amino]-5-(trifluoromethyl)pyrimidin-4-yl}amino)methyl]phenyl}-N-methylmethanesulfonamide]
0.6 nM | COc1ccc(Nc2ncc(C(F)(F)F)c(NCc3cccnc3N(C)S(C)(=O)=O)n2)cc1 [Compound 280, N-{3-[({2-[(4-methoxyphenyl)amino]-5-(trifluoromethyl)pyrimidin-4-yl}amino)methyl]pyridin-2-yl}-N-methylmethane-sulfonamide]
1.14 nM | CN(c1ncccc1CNc1nc(Nc2ccc(C(=O)NCc3ccccc3)cc2)ncc1C(F)(F)F)S(C)(=O)=O [Compound 271, N-benzyl-4-({4-[({2-[methyl(methylsulfonyl)amino]pyridin-3-yl}methyl)amino]-5-(trifluoromethyl)pyrimidin-2-yl}amino)benzamide]
1.41 nM | CN(c1ncccc1CNc1nc(Nc2ccc(C(=O)N3CC[C@H](F)C3)cc2)ncc1C(F)(F)F)S(C)(=O)=O [Compound 236, N-{3-[({2-[(4-{[(3S)-3-fluoropyrrolidin-1-yl]carbonyl}phenyl)amino]-5-(trifluoromethyl)pyrimidin-4-yl}amino)methyl]pyridin-2-yl}-N-methylmethane-sulfonamide]
3.51 nM | Cc1ccc(C(N)=O)cc1Nc1ncc(C(F)(F)F)c(NCc2nccnc2N(C)S(C)(=O)=O)n1 [Compound 309, 4-methyl-3-({4-[({3-[methyl(methylsulfonyl)amino]pyrazin-2-yl}methyl)amino]-5-(trifluoromethyl)pyrimidin-2-yl}amino)benzamide]
